Data from PMC7743948, “D-LL-31 enhances biofilm-eradicating effect of currently used antibiotics for chronic rhinosinusitis and its immunomodulatory activity on human lung epithelial cells” (PLoS ONE, 2020).
Square brackets hold non-standard residues; d marks the D form. Peptide text beside a SMILES is read from it.

Columns and labels:
[1] = test system: K. pneumoniae biofilm; assay: Checkerboard synergy of D-LL-31 with antibiotics on biofilm; format: cell-based, Klebsiella pneumoniae; conditions: D-LL-31 combined with AMX; IC50 alone compared with concentration of combination
Procedure: (§1) Bacterial viability in each interaction was determined using the plate count technique. The fractional inhibitory concentration index (FICI) values were calculated and interpreted in terms of synergism/antagonism as previously described. Each experiment was performed independently three times in duplicate.

[2] = test system: P. aeruginosa biofilm matrix; assay: Biofilm matrix reduction (AAA-model, CLSM, COMSTAT biomass); format: cell-based, Pseudomonas aeruginosa; conditions: combination of D-LL-31 (0.5 μM) and TOB (0.2 μM), 24 h
Procedure: (§2) Briefly, 1.5 ml of each overnight culture (10^8 CFU/ml) was added to a 24-well tissue culture plate (Nunclon™). The plate was covered with a sterile stainless-steel lid containing glass coverslips and aerobically incubated at 37°C for 24 h. […] All tested conditions were incubated at 37°C for 24 h. A well free of antimicrobial agent was used as a control. Following incubation, biofilms were fixed with 2.5% glutaraldehyde (Sigma-Aldrich) at 25°C for 3 h. The fixed bacterial biofilms on glass coverslips were stained with 50 μg/ml Alexa Fluor® 488 (Invitrogen, Carlsbad, CA) for 30 min. This stain reacts with exopolysaccharide matrixes of the biofilm. The glass coverslips were then mounted with 80% glycerol and the stained cells were photographed using a confocal laser-scanning microscope (CLSM) (TCS SP8-Leica Microsystems, Wetzlar, Germany). […] Each experiment was performed independently three times in duplicate.

[3] = test system: A549 cells (human lung epithelial cells); conditions: 25 µM
Procedure: Briefly, A549 cells were maintained in RPMI-1640 (HyClone™, Marlborough, MA) with 10% fetal bovine serum (FBS) (HyClone™) and sub-cultured by standard methods using trypsin/EDTA (0.25% trypsin, 0.1% EDTA) (Corning™, Corning, NY). A standard curve of A549 cells (100–50000 cells/well) was constructed as previously described with some modification [43]. For MTT assay, cells were plated at a density of 2.5×10^4 cells/well in 96-well plates and grown overnight. […] Prepared A549 cells were then exposed to the diluted peptides for 24 h at 37°C, 5% CO2 atmosphere. Negative controls received either culture medium or PPB. Cells with 2% dimethyl sulfoxide (DMSO) (Sigma-Aldrich) were used as positive control. Cytotoxicity was assessed using MTT (0.5 mg/ml) according to the manufacturer's instructions (Sigma-Aldrich). Absorbance was measured at a wavelength of 570 nm with background subtraction at 630–690 nm. Then absorbance values from the MTT were converted to cells/well using a standard curve. Cell viabilities were calculated using the formula; [mean of cells in treated well]/[mean of cells in control well] × 100%. Each experiment was performed independently three times in triplicate.

[4] = test system: P. aeruginosa biofilm; assay: Checkerboard synergy of D-LL-31 with antibiotics on biofilm; format: cell-based, Pseudomonas aeruginosa; conditions: IC50 alone compared with concentration of combination
Procedure: as §1

[5] = test system: hRBCs (human red blood cells); conditions: cited from earlier work
[6] = test system: all bacteria in biofilm; assay: Killing of bacteria grown as biofilm (TSP pin lid), statements for all bacteria; format: cell-based
Procedure: (§3) The effects of both conventional antibiotics and AMPs against bacteria under biofilm-stimulating condition were determined using a transferable solid phase (TSP) pin lid, which resembles the ‘Calgary’ biofilm device as previously described with some modifications. Each strain (10^7 CFU/ml) was added to sterile 96-well plates (Nunclon™), then covered by a TSP pin lid (NUNC™, Roskilde, Denmark), and further incubated at 37 °C for 24 h. […] Additionally, the effect of TOB (2–836 μM or 1–391 μg/ml) against P. aeruginosa biofilm was also investigated. Then the plates were statically incubated at 37 °C for 24 h. A well free of antimicrobial agent was used as a control. After 24 h, bacterial survival was determined using the plate count technique on NA (Himedia®). The percentage killing of each antimicrobial agent was calculated using the formula [1 − (CFU sample/CFU control)] × 100% [15, 19]. […] Each experiment was performed independently three times in duplicate.

[7] = test system: S. epidermidis biofilm; assay: Checkerboard synergy of D-LL-31 with antibiotics on biofilm; format: cell-based, Staphylococcus epidermidis; conditions: D-LL-31 combined with AMX; IC50 alone compared with concentration of combination
Procedure: as §1

[8] = test system: A549 human lung epithelial cells; assay: Cytokine antibody array of culture supernatant; format: cell-based; conditions: 10 μM, 24 h
Procedure: The immunomodulatory effect of D-LL-31 on A549 human lung epithelial cells was investigated using cytokine antibody arrays. […] Cells in medium without peptide were used as a control. After incubation, the secreted cytokines in culture supernatant were detected using a human angiogenesis antibody array kit (AAH-ANG-1000-4, Norcross, GA) according to the manufacturer's instructions. […] Each experiment was performed independently two times in duplicate.

[9] = test system: biofilm matrix of all tested strains; assay: Biofilm matrix reduction (AAA-model, CLSM, COMSTAT biomass), statements for all tested strains; format: cell-based
Procedure: as §2

[10] = test system: all tested isolates (K. pneumoniae, S. epidermidis, P. aeruginosa, P. aeruginosa ATCC 27853); assay: Killing of planktonic bacteria (CFU count), statements for all tested isolates; format: cell-based; conditions: 1 μM, within 1 h, 5 x 10^5 CFU/ml, all tested strains
Procedure: A bacterial suspension without peptide served as a control. The samples were then serially diluted and cultivated on NA (Himedia®) and incubated for 24 h to allow colony counting. […] Each experiment was performed independently three times in duplicate.

[11] = test system: P. aeruginosa biofilm; assay: microbe, parasite or virus in culture; conditions: biofilm, 24 h
Procedure: as §3

[12] = test system: K. pneumoniae biofilm; assay: microbe, parasite or virus in culture; conditions: biofilm, 24 h
Procedure: as §3

[13] = test system: S. epidermidis biofilm; assay: microbe, parasite or virus in culture
Procedure: as §3

SMILES: CC[C@@H](C)[C@@H](NC(=O)[C@@H](CCCCN)NC(=O)[C@@H](CCC(=O)O)NC(=O)[C@@H](CCCCN)NC(=O)[C@@H](CO)NC(=O)[C@@H](CCCCN)NC(=O)[C@@H](CCCNC(=N)N)NC(=O)[C@@H](Cc1ccccc1)NC(=O)[C@@H](Cc1ccccc1)NC(=O)[C@@H](CC(=O)O)NC(=O)CNC(=O)[C@@H](CC(C)C)NC(=O)[C@H](N)CC(C)C)C(=O)NCC(=O)N[C@H](CCCCN)C(=O)N[C@H](CCC(=O)O)C(=O)N[C@H](Cc1ccccc1)C(=O)N[C@H](CCCCN)C(=O)N[C@H](CCCNC(=N)N)C(=O)N[C@@H](C(=O)N[C@@H](C(=O)N[C@H](CCC(N)=O)C(=O)N[C@H](CCCNC(=N)N)C(=O)N[C@@H](C(=O)N[C@H](CCCCN)C(=O)N[C@H](CC(=O)O)C(=O)N[C@H](Cc1ccccc1)C(=O)N[C@H](CC(C)C)C(=O)N[C@H](CCCNC(=N)N)C(=O)N[C@H](CC(N)=O)C(=O)N[C@H](CC(C)C)C(=O)O)[C@H](C)CC)C(C)C)[C@H](C)CC [D-LL-31] (H-[dL][dL]G[dD][dF][dF][dR][dK][dS][dK][dE][dK][dI]G[dK][dE][dF][dK][dR][dI][dV][dQ][dR][dI][dK][dD][dF][dL][dR][dN][dL]-OH; N-terminus and C-terminus assumed)
- Fold decrease of IC50 values [1]: 8 fold
- biofilm matrix relative to controls [2]: statistically significant reduction
- viable cells [3]: more than 80%
- Fold decrease of IC50 values ([4]; D-LL-31 combined with AMX): 16 fold
- Fold decrease of IC50 values ([4]; D-LL-31 combined with TOB): 8 fold
- hemolytic activity [5]: less than 1%
- IC50 ([6]; 24 h biofilm, 24 h, read-out: IC50 values, range over all bacteria in biofilm): 500 to 4000 nM
- IC70 values, range ([6]; D-LL-31 alone and in combination with antibiotics, biofilm-stimulating condition): 800 to 8700 nM
- IC90 ([6]; bacteria grown as biofilm, read-out: IC90 values, range): 1000 to 25000 nM
- Fold decrease of IC50 values [7]: 16 fold
- expression of IFN-γ [8]: not found
- expression of IL-6 [8]: did not induce
- levels of IL-4, IL-8, TNF-α and GRO-a, b and g [8]: no significant change
- ENA-78 secretion relative to controls ([8]; P < 0.05): significantly secreted
- TIMP-2 in culture supernatant ([8]; P < 0.05): significantly elevated
- biofilm biomass relative to controls ([9]; D-LL-31 in combination with antibiotics, 24 h, P < 0.001): Significant decreases
- biofilm biomass relative to controls ([9]; D-LL-31 treatment alone at IC50, 24 h, P < 0.01): Significant decreases
- biofilm matrix relative to controls ([9]; combination of D-LL-31 with AMX, 24 h, all tested strains): distinct decrease
- killing of bacterial cells, in words [10]: completely killed
- IC50 [11]: 4000 nM
- IC50 [12]: 600 nM
- killing activity compared with all tested peptides ([13]; 1.56–25 μM, P < 0.05, one-way ANOVA): significantly higher
- IC50 ([13]; biofilm, 24 h): 500 nM
